22 compounds from patent US9926275B2 (priority 2013, dated 2018) can be followed below.

Test [1] has as its target T1, CB1 receptor (Homo sapiens, UniProt P21554). The test can be described thus: DiscoveRx HitHunter cAMP XS+ assay in cAMP Hunter cell line, allosteric modulation of CP55,940 response. The format is cell-based. The protocol:
Once it was established that the cells were healthy and growing normally, cells were passaged from flasks using cell dissociation reagent buffer and seeded into white walled clear bottom 384-well microplates for compound profiling. For profiling, cells were seeded at a density of 10000 cells per well in a total volume of 20 μL and were allowed to adhere and recover overnight prior to compound addition. Cells were treated the following day using the protocols shown below. cAMP modulation was determined using the DiscoveRx HitHunter cAMP XS+ assay.
Media was aspirated from cells and replaced with 10 μL 1:1 HBSS/Hepes: cAMP XS+ Ab reagent. Agonist (CP55,940) dose curves were performed to determine the EC20 value for the testing with the compounds of the present technology. 5 μL of 4× agonist was added to each well with an equal concentration of vehicle present. EC20 agonist concentration was determined directly from agonist dose curve.
(§1) For allosteric determination, cells were preincubated with compound followed by agonist challenge at the EC20 concentration of the agonist. 5 μL of 4× compound was added to cells and incubated at 37° C. for 30 minutes. 5 μL of 4× EC20 agonist was added to cells and incubated at 37° C. for 30 minutes.
Signal Detection: After appropriate compound incubation, assay signal was generated through incubation with 20 μL cAMP XS+ED/CL lysis cocktail for one hour followed by incubation with 20 μL cAMP XS+EA reagent for three hours at room temperature. Microplates were read following signal generation with a PerkinElmer Envision™ instrument for chemiluminescent signal detection.
(§2) Data Analysis: Dose curves were plotted using GraphPad Prism or Activity Base. The percentage activity is calculated using the following formula: % Activity=100%×(1−(mean RLU of test sample−mean RLU of MAX control)/(mean RLU of vehicle control [EC20 for PAM]−mean RLU of MAXcontrol).
(§3) Agonist (CP55,940) dose curves were performed for the CNR1 PathHunter and cAMP Hunter cell lines. […] The cAMP assay was performed in the presence of 20 μM forskolin (EC80).
(§4) In Vitro Evaluation: The in vitro evaluation of the covalent allosteric modulators was performed using as described previously.

The target of test [2] is T1, CB1 receptor. The test can be described thus: β-arrestin recruitment in CNR1 PathHunter cell line, allosteric modulation of CP55,940 response. The format is cell-based. The protocol:
as §1, §2, §3, §4

The mark [3] stands for this setting: Table 1, preincubation with compound, then CP55,940 challenge, 20 μM forskolin.
Where [4] appears, read: Table 1, preincubation with compound, then CP55,940 challenge, 20 μM forskolin, read-out: cAMP EC50.
[5] abbreviates: Table 1, CP55,940 as agonist, read-out: β-arrestin EC50.

Where two headings read alike, the source gives them in different places.

T1 sequence (P21554 whole entry): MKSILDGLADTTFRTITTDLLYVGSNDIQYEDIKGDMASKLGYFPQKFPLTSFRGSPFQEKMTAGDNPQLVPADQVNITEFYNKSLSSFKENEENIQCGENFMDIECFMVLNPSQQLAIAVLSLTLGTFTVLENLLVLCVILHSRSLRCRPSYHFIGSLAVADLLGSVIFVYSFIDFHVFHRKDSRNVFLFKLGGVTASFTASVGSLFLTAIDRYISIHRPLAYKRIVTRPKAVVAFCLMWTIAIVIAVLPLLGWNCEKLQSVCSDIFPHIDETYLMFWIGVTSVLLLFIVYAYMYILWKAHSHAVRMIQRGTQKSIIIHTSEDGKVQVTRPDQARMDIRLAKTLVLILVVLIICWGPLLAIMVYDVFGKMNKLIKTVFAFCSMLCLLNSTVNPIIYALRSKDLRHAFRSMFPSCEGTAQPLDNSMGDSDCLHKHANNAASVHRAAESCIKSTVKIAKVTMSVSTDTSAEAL

Turning to `O=C(Nc1cccc(-c2cccc(N3CCCC3)n2)c1)Nc1ccc(Cl)c(CCCCO)c1` [Compound 24b, 1-(4-Chloro-3-(4-hydroxybutyl)phenyl)-3-(3-(6-(pyrrolidin-1-yl)pyridin-2-yl)phenyl)urea], in test [1] (setting [3]), the cAMP % inhibition is 111%. Besides, the EC50 (commonly the midpoint of the concentration-response curve) turned out to be 1420 nM in test [1] (setting [4]) and 1350 nM in test [2] (setting [5]). Further, the β-arrestin % inhibition in test [2] (Table 1, CP55,940 as agonist) came to 125%.
The corresponding values for `CN(C(=O)Nc1cccc(-c2cccc(N3CCCC3)n2)c1)c1ccc(Cl)cc1` [Compound 13a, 1-(4-Chlorophenyl)-1-methyl-3-(3-(6-(pyrrolidin-1-yl)pyridin-2-yl)phenyl)urea] are 17%, 1640 nM, 1020 nM and 99%.
On the same counts, the results for `O=C(Nc1cccc(-c2cccc(N3CCCC3)n2)c1)Nc1ccc(Cl)cc1CCCCO` [Compound 24a, 1-(4-Chloro-2-(4-hydroxybutyl)phenyl)-3-(3-(6-(pyrrolidin-1-yl)pyridin-2-yl)phenyl)urea] are 82%, 1230 nM, 276 nM and 126%.
In the case of `O=C(Nc1ccc(Cl)cc1)Nc1cccc(-c2cccc(N3CCCC3)n2)c1` [Compound 10a, 1-(4-Chlorophenyl)-3-(3-(6-(pyrrolidin-1-yl)pyridin-2-yl)phenyl)urea], the cAMP % inhibition in test [1] was 108%. In addition, in test [2], the β-arrestin % inhibition is on record as 109%.
`CC(C)c1ccccc1NC(=O)Nc1cccc(-c2cccc(N3CCCC3)n2)c1` [Compound 10v, 1-(2-Isopropylphenyl)-3-(3-(6-(pyrrolidin-1-yl)pyridin-2-yl)phenyl)urea]: the cAMP % inhibition in test [1] was 70%. In addition, the EC50 stood at 4810 nM in test [1] (cAMP EC50 nM) and 4200 nM in test [2] (β-arrestin EC50 nM). Also, the β-arrestin % inhibition in test [2] is 66%.
For the compound `CN(C(=O)Nc1ccc(Cl)cc1)c1cccc(-c2cccc(N3CCCC3)n2)c1` [Compound 27, 3-(4-Chlorophenyl)-1-methyl-1-(3-(6-(pyrrolidin-1-yl)pyridin-2-yl)phenyl)urea], the cAMP % inhibition in test [1] (setting [3]) is given as 31%. Moreover, the results for the EC50 in test [1] (setting [4]) and in test [2] (setting [5]) were 527 nM and 384 nM, respectively. Also, the β-arrestin % inhibition in test [2] (Table 1, CP55,940 as agonist) is 109%.
On the same counts, the results for `O=C(Nc1ccc(Oc2ccccc2)cc1)Nc1cccc(-c2cccc(N3CCCC3)n2)c1` [Compound 10k, 1-(4-Phenoxyphenyl)-3-(3-(6-(pyrrolidin-1-yl)pyridin-2-yl)phenyl)urea] are 91%, 750 nM, 115 nM and 123%.
On the same counts, the results for `O=C(Nc1cccc(-c2cccc(N3CCCC3)n2)c1)Nc1ccc(Cl)cc1I` [Compound 19a, 1-(4-Chloro-2-iodophenyl)-3-(3-(6-(pyrrolidin-1-yl)pyridin-2-yl)phenyl)urea] are 53%, 1270 nM, 1200 nM and 118%.
As for `Cc1ccc(NC(=O)Nc2cccc(-c3cccc(N4CCCC4)n3)c2)cc1` [Compound 10n, 1-(3-(6-(Pyrrolidin-1-yl)pyridin-2-yl)phenyl)-3-(p-tolyl)urea], the cAMP % inhibition in test [1] turned out to be 122%. The 50% effective concentration (EC50) turned out to be 764 nM in test [1] (cAMP EC50 nM) and 119 nM in test [2] (β-arrestin EC50 nM). Besides, in test [2], the β-arrestin % inhibition was found to be 127%.
Regarding `Cc1cc(Cl)ccc1OC(=O)Nc1cccc(-c2cccc(N3CCCC3)n2)c1` [Compound 13c, 4-Chloro-2-methylphenyl (3-(6-(pyrrolidin-1-yl)pyridin-2-yl)phenyl)carbamate], the cAMP % inhibition in test [1] (setting [3]) came out at 24%. In addition, the EC50 in test [1] (setting [4]) is 3050 nM; in test [2] (setting [5]), 3070 nM. The β-arrestin % inhibition in test [2] (Table 1, CP55,940 as agonist) is reported as 39%.
On the same counts, the results for `S=C(Nc1ccc(Cl)cc1)Nc1cccc(-c2cccc(N3CCCC3)n2)c1` [Compound 32, 1-(4-Chlorophenyl)-3-(3-(6-(pyrrolidin-1-yl)pyridin-2-yl)phenyl)thiourea] are 77%, 830 nM, 276 nM and 110%.
For the compound `O=C(Nc1ccc(I)cc1)Nc1cccc(-c2cccc(N3CCCC3)n2)c1` [GAT205], the 50% effective concentration (EC50) in test [1] (Table 2, covalent allosteric modulators, read-out: cAMP activity EC50 (nm)) came out at 253 nM; in test [2] (Table 2, covalent allosteric modulators, read-out: β-arrestin activity EC50 (nm)) it was 11.5 nM. Further, the Emax in test [1] (Table 2, covalent allosteric modulators, read-out: cAMP activity ECMax (%)) came to 102%; in test [2] (Table 2, covalent allosteric modulators, read-out: β-arrestin activity EMax (%)) it was 105%.
As to `CN(C(=O)N(C)c1cccc(-c2cccc(N3CCCC3)n2)c1)c1ccc(Cl)cc1` [Compound 28, 1-(4-Chlorophenyl)-1,3-dimethyl-3-(3-(6-(pyrrolidin-1-yl)pyridin-2-yl)phenyl)urea], the cAMP % inhibition in test [1] (setting [3]) came to 39%. Also, the half-maximal effective concentration (EC50) in test [1] (setting [4]) was found to be 1670 nM; in test [2] (setting [5]), 2330 nM. In addition, the β-arrestin % inhibition in test [2] (Table 1, CP55,940 as agonist) amounted to 62%.
On the same counts, the results for `O=C(Nc1cccc(-c2cccc(N3CCCC3)n2)c1)Nc1cccc(C(F)(F)F)c1` [Compound 10f, 1-(3-(6-(Pyrrolidin-1-yl)pyridin-2-yl)phenyl)-3-(3-(trifluoromethyl)phenyl)urea] are 116%, 242 nM, 220 nM and 129%.
The corresponding values for `O=C(Nc1cccc(-c2cccc(N3CCCC3)n2)c1)Nc1ccc2ccccc2c1` [Compound 10x, 1-(Naphthalen-2-yl)-3-(3-(6-(pyrrolidin-1-yl)pyridin-2-yl)phenyl)urea] are 68%, 1830 nM, 1910 nM and 119%.
On the same counts, the results for `Cc1ccccc1NC(=O)Nc1cccc(-c2cccc(N3CCCC3)n2)c1` [Compound 10p, 1-(3-(6-(Pyrrolidin-1-yl)pyridin-2-yl)phenyl)-3-(o-tolyl)urea] are 97%, 1700 nM, 361 nM and 104%.
In the case of `O=C(Nc1cccc(-c2cccc(N3CCCC3)n2)c1)N1CCc2ccccc2C1` [Compound 10y, N-(3-(6-(Pyrrolidin-1-yl)pyridin-2-yl)phenyl)-3,4-dihydroisoquinoline-2(1H)-carboxamide], the cAMP % inhibition in test [1] (setting [3]) worked out at 2.55%. Moreover, the EC50 is more than 10000 nM in test [1] (read-out: cAMP EC50) and 5340 nM in test [2] (setting [5]). Besides, the β-arrestin % inhibition in test [2] (Table 1, CP55,940 as agonist) is given as 50%.
Regarding `O=C(Nc1cccc(-c2cccc(N3CCCC3)n2)c1)Nc1ccccc1C(F)(F)F` [Compound 10g, 1-(3-(6-(Pyrrolidin-1-yl)pyridin-2-yl)phenyl)-3-(2-(trifluoromethyl)phenyl)urea], the cAMP % inhibition in test [1] (setting [3]) is listed as 119%. Further, the EC50 in test [1] (setting [4]) came to 1160 nM; in test [2] (setting [5]), 2090 nM. Besides, the β-arrestin % inhibition in test [2] (Table 1, CP55,940 as agonist) turned out to be 123%.
On the same counts, the results for `O=C(Nc1ccc(Cl)cc1)Nc1cccc(-c2cccc(N3CCCC3)c2)c1` [Compound 64] are 84%, 679 nM, 27 nM and 110%.
Consider `O=C(Nc1ccc(Cl)cc1)Nc1ccc(-c2cccc(N3CCCC3)n2)cc1` [Compound 51, 1-(4-Chlorophenyl)-3-(4-(6-(pyrrolidin-1-yl)pyridin-2-yl)phenyl)urea], for which, in test [1] (setting [3]), the cAMP % inhibition is on record as 11%. Further, the EC50 in test [1] (setting [4]) was more than 10000 nM; in test [2] (setting [5]), 206 nM. In addition, the β-arrestin % inhibition in test [2] (Table 1, CP55,940 as agonist) was 109%.
On the same counts, the results for `O=C(Nc1cccc(-c2cccc(N3CCCC3)n2)c1)Nc1ccccc1CO` [Compound 17, 1-(2-(Hydroxymethyl)phenyl)-3-(3-(6-(pyrrolidin-1-yl)pyridin-2-yl)phenyl)urea] are 33%, 1140 nM, 672 nM and 106%.
In the case of `O=C(Nc1cccc(Oc2ccccc2)c1)Nc1cccc(-c2cccc(N3CCCC3)n2)c1` [Compound 10l, 1-(3-Phenoxyphenyl)-3-(3-(6-(pyrrolidin-1-yl)pyridin-2-yl)phenyl)urea], the cAMP % inhibition in test [1] (setting [3]) is 57%. In addition, the concentration for a half-maximal effect (EC50) in test [1] (setting [4]) was determined as 2240 nM; in test [2] (setting [5]), 86 nM. Moreover, the β-arrestin % inhibition in test [2] (Table 1, CP55,940 as agonist) is given as 117%.
